Source: patent US12595251B2, “Amidines and amidine analogs for the treatment of bacterial infections and potentiation antibiotics” (GEORGIA STATE UNIVERSITY RESEARCH FOUNDATION, INC., priority 2018, dated 2026)
Converted amounts (≈) assume the structure as drawn. Read-outs that look alike come from different tables or passages of the source.

What was measured:
[1] = test system: E. coli; assay: Sensitization of E. coli to erythromycin (sensitization fold from IC90, OD600, 20 h); format: cell-based, Escherichia coli; conditions: NA=no activity; for SF (E. coli) at 12.5 μM / SF (E. coli) at 25 μM / SF (E. coli) at 6 μM / SF (E. coli) at 12 μM: erythromycin; for SF (E. coli) at 12.5 μM: compound at 12.5 μM; for SF (E. coli) at 25 μM: compound at 25 μM; for SF (E. coli) at 6 μM: compound at 6 μM; for SF (E. coli) at 12 μM: compound at 12 μM
Protocol: (§1) E. coli bacteria were cultured in Miller's broth at 37° C. overnight prior to treatment. B. subtilis bacteria were cultured in nutrient broth at 37° C. overnight prior to treatment. […] Bacterial density was measured based on OD600.

[2] = test system: B. subtilis; assay: Sensitization of B. subtilis to erythromycin (sensitization fold from IC90, OD600, 20 h); format: cell-based, Bacillus subtilis; conditions: for SF (B. subtilis) at 6 μM: compound at 6 μM; for SF (B. subtilis) at 12 μM: compound at 12 μM; for SF (B. subtilis): sensitization fold = IC90 of erythromycin without/with compound, compound concentration not given, T=toxic; for SF (B. subtilis) at 3 μM: compound at 3 μM
Protocol: as §1

[3] = test system: wild-type E. coli; assay: Sensitization of wild-type E. coli toward antibiotics (MIC of antibiotic with/without sensitizer); format: cell-based, Escherichia coli; conditions: wild-type E. coli; for MIC: Escherichia coli, antibiotic alone, read-out: MIC of AB only; for MIC of AB with Compound C (5 μg/ml) / FIC: antibiotic plus Compound C 5 μg/ml; for FIC: fractional inhibitory concentration
Protocol: Bacteria were cultured with the antibiotic at various concentrations in the presence or absence of bacterial sensitizer for 24 hours at 37° C. Bacterial growth density was determined by measuring OD600 (absorbance measured at a wavelength of 600 nm). […]
The formula for calculating FIC is shown below: […]

[4] = test system: NDM-1 over-expressing E. coli; assay: microbe, parasite or virus in culture; format: cell-based, Escherichia coli; conditions: for MIC: Escherichia coli; for Sensitization fold: MIC of antibiotic only / MIC with Compound C 5 μg/ml; for FIC / MIC of AB with Compound C (5 μg/ml): antibiotic plus Compound C 5 μg/ml
[5] = test system: M. smegmatis; assay: Antibacterial activity against M. smegmatis (MIC, OD600, 48 h); format: cell-based, Mycobacterium smegmatis; conditions: Mycolicibacterium smegmatis, MIC = 90% growth inhibition, 7H9 media, NA=no activity
[6] = antibiotic alone, read-out: MIC of AB only

Cc1cc(COc2ccc(C(=N)N)cc2)nc(COc2ccc(C(=N)N)cc2)c1
SF (E. coli) at 12.5 μM [1]: 8 fold | SF (E. coli) at 25 μM [1]: 32 fold | SF (E. coli) ([1]; sensitization fold = IC90 of erythromycin without/with compound, compound concentration not given, T=toxic): 33 | SF (B. subtilis) at 6 μM ([2]; erythromycin, NA=no activity): 8 fold | SF (B. subtilis) at 12 μM ([2]; erythromycin, NA=no activity): 32 fold | SF (B. subtilis) ([2]; NA=no activity): > 30

O=C(N[C@H](CO)[C@H](O)c1ccc([N+](=O)[O-])cc1)C(Cl)Cl [Chloramphenicol, chloramphenicol]
MIC ([3]; 24 h): 12.5 µg/mL | MIC of AB with Compound C (5 μg/ml) [3]: 1.5 µg/mL | FIC [3]: 0.22 | MIC [4, 6]: 6.25 µg/mL | Sensitization fold [4]: 8 | FIC [4]: 0.22 | MIC of AB with Compound C (5 μg/ml) [4]: 0.8 µg/mL

CC[C@H]1OC(=O)[C@H](C)[C@@H](O[C@H]2C[C@@](C)(OC)[C@@H](O)[C@H](C)O2)[C@H](C)[C@@H](O[C@@H]2O[C@H](C)C[C@H](N(C)C)[C@H]2O)[C@](C)(OC)C[C@@H](C)C(=O)[C@H](C)[C@@H](O)[C@]1(C)O [Clarithromycin, clarithromycin]
MIC [4, 6]: 24 µg/mL | FIC [4]: 0.12 | MIC of AB with Compound C (5 μg/ml) [4]: 0.4 µg/mL

CCC[C@@H]1C[C@@H](C(=O)N[C@@H]([C@H]2O[C@H](SC)[C@H](O)[C@@H](O)[C@H]2O)[C@H](C)Cl)N(C)C1 [Clindamycin, clindamycin]
MIC ([3]; 24 h): 250 µg/mL | MIC of AB with Compound C (5 μg/ml) [3]: 4 µg/mL | FIC [3]: 0.12 | MIC [4, 6]: 250 µg/mL | FIC [4]: 0.12 | MIC of AB with Compound C (5 μg/ml) [4]: 4 µg/mL

CO[C@@H]1[C@@H](OC(N)=O)[C@@H](O)[C@H](Oc2ccc3c(O)c(NC(=O)c4ccc(O)c(CC=C(C)C)c4)c(=O)oc3c2C)OC1(C)C [Novobiocin, novobiocin]
MIC [3]: 100 µg/mL | MIC of AB with Compound C (5 μg/ml) [3]: 1.5 µg/mL | FIC [3]: 0.12 | MIC [4, 6]: 50 µg/mL | MIC ([4]; read-out: MIC of AB with Compound C (5 μg/ml), antibiotic plus Compound C 5 μg/ml): 1.6 µg/mL | Sensitization fold [4]: 32 | FIC [4]: 0.13

Cc1cc(COc2ccc(C3=NCCN3)cc2)cc(COc2ccc(C3=NCCN3)cc2)c1 [drawing 723]
SF (B. subtilis) ([2]; NA=no activity): >4

N=C(N)c1ccc(OCc2ccc(COc3ccc(C(=N)N)cc3)cc2)cc1 [drawing 728]
SF (B. subtilis) ([2]; NA=no activity): <2

COc1cc(C(=N)N)ccc1OCc1cccc(COc2ccc(C(=N)N)cc2OC)c1F [drawing 731]
SF (B. subtilis) at 6 μM ([2]; erythromycin, NA=no activity): 4-fold at 6 μM

Cc1cc(COc2ccc(CN)cc2)cc(COc2ccc(CN)cc2)c1 [drawing 733]
SF (E. coli) at 25 μM [1]: 4-fold at 25 μM | SF (B. subtilis) at 12.5 μM ([2]; erythromycin, compound at 12.5 μM, NA=no activity): 16-fold at 12.5 μM

Cc1cc(CCc2ccc(C(=N)N)cc2)cc(CCc2ccc(C(=N)N)cc2)c1 [drawing 734]
SF (E. coli) at 12.5 μM [1]: 8 fold | SF (E. coli) at 25 μM [1]: 32 fold | SF (B. subtilis) at 6 μM ([2]; erythromycin, NA=no activity): 32-fold at 6 μM

Cc1cc(OCc2ccc(C(=N)N)cc2)cc(OCc2ccc(C(=N)N)cc2)c1 [drawing 736]
SF (E. coli) at 25 μM [1]: 32-fold at 25 μM | SF (B. subtilis) at 12 μM ([2]; erythromycin, NA=no activity): 32-fold at 12 μM

COc1cc(C(=N)N)ccc1OCc1cc(COc2ccc(C(=N)N)cc2OC)cc(C(C)(C)C)c1 [drawing 741]
SF (E. coli) at 6 μM [1]: 2 fold | SF (E. coli) at 12.5 μM [1]: 8 fold | SF (B. subtilis) at 6 μM ([2]; erythromycin, NA=no activity): 2 fold | SF (B. subtilis) at 12 μM ([2]; erythromycin, NA=no activity): 8 fold

CC(C)(C)c1cc(COc2ccc(C(=N)N)cc2F)cc(COc2ccc(C(=N)N)cc2F)c1 [drawing 742]
SF (E. coli) at 6 μM [1]: 4 fold | SF (E. coli) at 12 μM [1]: 32 fold | SF (B. subtilis) at 3 μM ([2]; erythromycin): 2 fold | SF (B. subtilis) at 6 μM ([2]; erythromycin, NA=no activity): 8 fold

Cc1cc(COc2cccc(C(=N)N)c2)cc(COc2cccc(C(=N)N)c2)c1 [drawing 743]
SF (E. coli) at 12 μM [1]: 2 fold | SF (E. coli) at 25 μM [1]: 8 fold | SF (B. subtilis) at 6 μM ([2]; erythromycin, NA=no activity): 8 fold | SF (B. subtilis) at 12 μM ([2]; erythromycin, NA=no activity): 32 fold

Cc1cc(CSc2ccc(C(=N)N)cc2)cc(CSc2ccc(C(=N)N)cc2)c1 [drawing 744]
SF (E. coli) at 12.5 μM [1]: 32 fold | SF (B. subtilis) at 6 μM ([2]; erythromycin, NA=no activity): 32 fold

Cc1cc(CSc2ccc(C3=NCCN3)cc2)cc(CSc2ccc(C3=NCCN3)cc2)c1 [drawing 745]
SF (B. subtilis) at 3 μM ([2]; erythromycin): 4 fold | SF (B. subtilis) at 6 μM ([2]; erythromycin, NA=no activity): 16 fold

Cc1ccc(COc2ccc(C(=N)N)cc2)cc1COc1ccc(C(=N)N)cc1 [drawing 746]
SF (E. coli) at 12.5 μM [1]: 4 fold | SF (E. coli) at 25 μM [1]: 32 fold | SF (B. subtilis) at 6 μM ([2]; erythromycin, NA=no activity): 16 fold | SF (B. subtilis) at 12 μM ([2]; erythromycin, NA=no activity): 32 fold

Cc1cc(-c2nc3cc(C(=N)N)ccc3n2C)sc1-c1ccc(OCCCCOc2ccc(C(=N)N)cc2)cc1 [drawing 822]
MIC [5]: 3 to 6 µM (≈ 1.66 to 3.32 µg/mL)
